Assays:
[1] = tested on: rat carrageenan-induced inflammatory pain model; test: Rat carrageenan-induced inflammatory pain model: paw edema, paw volume, exudate amount; format: in vivo; details: for exudate amount of the paw: FIG. 3; for paw edema: vs negative control (distilled water), hyaluronic acid 200 mg/kg/day by drinking for 4 weeks, ibuprofen 100 mg/kg oral 1 hour before induction, FIG. 1
Protocol: (§1) Rats (Wistar (SPF), male, four-weeks-old at the time of purchase, purchased from Japan SLC, Inc.) were acclimatized and fed for 7 days, and then grouped based on their body weights on the day before administration. The above-mentioned test solution was administered by drinking ad libitum for 4 weeks.
It should be noted that the 1% λ-carrageenan solution was stirred with a stirrer until immediately before use (induction). After that, a paw volume was measured using a paw volume measuring apparatus. In addition, blood was collected from the rat pain model under isoflurane anesthesia. After that, an exudate was collected from the hind paw, and the measurement of PGE2 and bradykinin in the exudate was performed.
The tuberal region of the pisiform bone outside the rat right hind paw was marked with marking ink so that volume measurement was uniform. Distilled water was charged up to a target water surface of a measuring chamber of the paw volume measuring apparatus. A measurer restrained the rat, and while lightly pressing the femoral region of the paw to be measured, put the paw at a position at which the mark leveled off and reached the target water surface. Then, a paw volume was recorded using a foot switch connected to the apparatus. It should be noted that the measurement of the paw volume was performed three times for each animal individual, and a mean thereof was determined.
Regarding a measured value for the paw volume, an amount of change Δ mL was determined from the following calculation equation for each individual animal, and a group mean and its standard error (SE) were calculated.
Amount of change A mL=Value at the time of each measurement after carrageenan administration−Value before (0 hours after) carrageenan administration
(§2) A 15-mL centrifugation tube, which had been measured for its tare weight in advance, was prepared, and a container having a 2-mL pipette tip cut at the tip in the centrifugation tube was prepared. The induced paw of the animal after the end of the blood collection was amputated from 1 cm above the malleolus using bone scissors or the like, and measured for its weight. The skin at the plantar site of the rat was deeply incised using a scalpel to make 2 incisions in a length direction by 4 incisions in a width direction which is perpendicular to the length direction. This paw skin tissue was placed with the toe down into the above-mentioned container, and cooling centrifugation was performed using a centrifugation machine at 3,000 rpm for 15 minutes to collect an exudate. In addition, in a non-treated group, the collection was performed from the left and right hind paws. The mass of the collected exudate was measured using an electrobalance. To the exudate after the end of the mass measurement were added 100 μL of 20 mM aspirin-containing physiological saline and 250 μL of 20 unit/mL heparin-containing physiological saline, the resultant was centrifuged, and then the supernatant was used as an exudate sample. In addition, the exudate was dispensed into a tube. The exudate sample was frozen with liquid nitrogen and cryopreserved until use.

bradykinin = test: Measurement of bradykinin in paw exudate (EIA), rat carrageenan model; format: in vivo; details: for total amount of bradykinin in exudate: vs negative control, FIG. 5
Protocol: as §1, with “weeks. After the administration by drinking for 4 weeks, the rats were selected and grouped so that there was no difference in body weight between groups at the time of carrageenan induction (see Table 1), and then the rats were each used for a pain model to be described later.” for “weeks.”
(§3) A rat pain model was produced by subcutaneously injecting 0.1 mL of a 1% A-carrageenan (manufactured by SIGMA) solution into the plantar surface of the rat hind paw with reference to methods of Ohuchi et al. (Kazuo Ohuchi, “Seibutsu Yakkagaku Jikken Koza (Biological pharmaceutical science experimental course) (Vol. 12) Inflammation and Allergy I-1”, Chapter 1, foreign matter-induced inflammation model: pp. 30-51) and Masahiro Noguchi et al. (Masahiro Noguchi, et al: Enzymologic and pharmacologic profile of loxoprofen sodium and its metabolites. Biol. Pharm. Bull. 2005.28.2075-2079). It should be noted that the 1% λ-carrageenan solution was stirred with a stirrer until immediately before use (induction). After that, a paw volume was measured using a paw volume measuring apparatus. In addition, blood was collected from the rat pain model under isoflurane anesthesia. After that, an exudate was collected from the hind paw, and the measurement of PGE2 and bradykinin in the exudate was performed.
as §2
The measurement of bradykinin in the exudate was performed using “Bradykinin, EIA Kit, High Sensitivity, Bachem Americans.” The operations were performed in conformity with the accompanying protocol of the kit.

PGE2 = test: Measurement of PGE2 in paw exudate (ELISA), rat carrageenan model; format: in vivo; details: vs negative control; for total amount of PGE2 in exudate: FIG. 7; for concentration of PGE2 in exudate: FIG. 8
Protocol: as §1, with “weeks. After the administration by drinking for 4 weeks, the rats were selected and grouped so that there was no difference in body weight between groups at the time of carrageenan induction (see Table 1), and then the rats were each used for a pain model to be described later.” for “weeks.”
as §3, §2
The measurement of PGE2 (ELISA) in the exudate was performed using “Prostaglandin E2 Kit-Monoclonal, ACE.” The operations were performed in conformity with the accompanying protocol of the kit.

[2] = tested on: TGF-β1 mRNA in human colon adenocarcinoma-derived HT29 cells; test: TGF-β expression promoting action in HT29 cells (TGF-β1 mRNA, real-time PCR); format: cell-based; details: hyaluronic acid 0.01 mg/ml, LPS 200 ng/mL added 1 hour later, 24 hours after addition of hyaluronic acid, control = 1, FIG. 11
Protocol: In order to confirm the TGF-β expression promoting action of hyaluronic acid in human colon adenocarcinoma-derived HT29 cells (purchased from DS Pharma Biomedical Co., Ltd.), the measurement of the production amount of TGF-β mRNA in the case of treating HT29 cells with hyaluronic acid was performed by the following method.
Hyaluronic acid was added to a culture supernatant, and 1 hour after that, a lipopolysaccharide (LPS) was added at a concentration of 200 ng/mL. 23 hours after that, mRNA of cells was collected, and the determination of TGF-β1 mRNA using real-time PCR equipment (Mx 3005, Agilent Technologies) was performed. First, cDNA was synthesized from mRNA by reverse transcription, and a PCR reaction was performed using the cDNA. That is, an amplification reaction involving repeating thermal denaturation (95° C., 10 seconds) and annealing (60° C., 20 seconds) 40 times was performed, and simultaneously, DNA amplification was measured by monitoring fluorescence from CybrGreen to be conjugated with DNA, and determination in the case of defining the mRNA amount of a control as 1 was performed. The human TGF-31 primers used were designed with the software Primer BLAST made available to the public by the National Center for Biotechnology Information (NCBI). Their sequences are 5′-[…]-3′ (Forward) and 5′-[…]-3′ (Reverse). […]

IL-10 = test: Measurement of IL-10 in plasma, rat carrageenan model; format: in vivo; details: oral hyaluronic acid 200 mg/kg/day 4 weeks
Protocol: as §1, with “weeks. After the administration by drinking for 4 weeks, the rats were selected and grouped so that there was no difference in body weight between groups at the time of carrageenan induction (see Table 1), and then the rats were each used for a pain model to be described later.” for “weeks.”
(§4) The rat pain model under anesthesia with isoflurane (manufactured by Mylan Pharmaceuticals, Inc.) was subjected to abdominal section, and blood was collected through the caudal vena cava of the abdomen. A 5-mL disposable injection syringe filled with heparin sodium (Wako Pure Chemical Industries, Ltd.) and a 22-G injection needle were used for the blood collection. Plasma was rapidly separated from the collected blood using a centrifuge, dispensed into a tube, and cryopreserved until use.
The measurement of IL-10 in plasma was performed using “Quantikine Rat IL-10 (R & D Systems, Inc.).” The operations were performed in conformity with the accompanying protocol of the kit.

TGF-β1 = test: Measurement of TGF-β1 in plasma (ELISA), rat carrageenan model; format: in vivo; details: 6 hours after carrageenan induction, FIG. 4
Protocol: as §1, with “weeks. After the administration by drinking for 4 weeks, the rats were selected and grouped so that there was no difference in body weight between groups at the time of carrageenan induction (see Table 1), and then the rats were each used for a pain model to be described later.” for “weeks.”
A rat pain model was produced by subcutaneously injecting 0.1 mL of a 1% A-carrageenan (manufactured by SIGMA) solution into the plantar surface of the rat hind paw with reference to methods of Ohuchi et al. (Kazuo Ohuchi, “Seibutsu Yakkagaku Jikken Koza (Biological pharmaceutical science experimental course) (Vol. 12) Inflammation and Allergy I-1”, Chapter 1, foreign matter-induced inflammation model: pp. 30-51) and Masahiro Noguchi et al. (Masahiro Noguchi, et al: Enzymologic and pharmacologic profile of loxoprofen sodium and its metabolites. Biol. Pharm. Bull. 2005.28.2075-2079). It should be noted that the 1% λ-carrageenan solution was stirred with a stirrer until immediately before use (induction). After that, a paw volume was measured using a paw volume measuring apparatus. […]

[3] = Measurement of concentration of hyaluronic acid in plasma; format: in vivo, rat
Protocol: as §1, with “weeks. After the administration by drinking for 4 weeks, the rats were selected and grouped so that there was no difference in body weight between groups at the time of carrageenan induction (see Table 1), and then the rats were each used for a pain model to be described later.” for “weeks.”
as §4
The measurement of the concentration of hyaluronic acid in plasma was performed using “Hyaluronan Assay Kit (Seikagaku Biobusiness Corporation).”
The concentrations of hyaluronic acid in plasma of the negative control (distilled water-administered group) and the test solution-administered group were measured. The concentrations of hyaluronic acid in plasma were measured before carrageenan induction and 6 hours and 8 hours after carrageenan induction.

[4] = 6 hours after carrageenan induction
[5] = 6 hours after carrageenan induction, vs negative control, hyaluronic acid 200 mg/kg/day 4 weeks, ibuprofen 100 mg/kg oral
[6] = 3 hours after carrageenan induction
[7] = 6 hours after carrageenan induction, vs negative control (distilled water), FIG. 6

Row | concentration of hyaluronic acid in plasma ([3]; 6 hours after carrageenan induction, FIG. 9) | concentration of hyaluronic acid in plasma ([3]; 8 hours after carrageenan induction, FIG. 9) | concentration of hyaluronic acid in plasma ([3]; before carrageenan induction, after continuous ingestion for 4 weeks (200 mg/kg/day), FIG. 9 left panel) | Compound | exudate amount of the paw ([1]; 3 hours after carrageenan induction, vs negative control, ibuprofen 100 mg/kg oral) | paw edema [1, 4] | exudate amount of the paw [1, 5] | total amount of bradykinin in exudate (bradykinin; [6]) | concentration of bradykinin in exudate (bradykinin; [7]) | total amount of bradykinin in exudate (bradykinin; [4]) | total amount of PGE2 in exudate (PGE2; [6]) | concentration of PGE2 in exudate (PGE2; [6]) | total amount of PGE2 in exudate (PGE2; [4]) | concentration of PGE2 in exudate (PGE2; [4]) | amount of TGF-β1 mRNA relative to control (no addition of hyaluronic acid) [2] | increase in IL-10 in plasma (IL-10) | paw volume ([1]; 6 hours after carrageenan induction, vs negative control, hyaluronic acid 200 mg/kg/day 4 weeks, ibuprofen 100 mg/kg oral, FIG. 2) | concentration of bradykinin in exudate (bradykinin; 3 hours after carrageenan induction, vs distilled water group, FIG. 6) | concentration of bradykinin in exudate compared to positive control (ibuprofen) (bradykinin; 3 hours and 6 hours after carrageenan induction, FIG. 6) | concentration of TGF-β in plasma compared to positive control (ibuprofen) (TGF-β1; same timing) | concentration of TGF-β in plasma (TGF-β1; hyaluronic acid 200 mg/kg/day 4 weeks)
1 | – | – | – | CC(C)Cc1ccc(C(C)C(=O)O)cc1 (centres unmarked) [ibuprofen, reference compound] | significantly smaller than those in the negative control | milder than in the negative control | significantly smaller than those in the negative control | smaller than those in the negative control | significantly smaller concentration of bradykinin than that in the negative control | smaller than those in the negative control (statistically significant 6 hours after carrageenan induction) | smaller than those in the negative control | significantly smaller than those in the negative control | smaller than those in the negative control (statistically significant 6 hours after carrageenan induction) | significantly smaller than those in the negative control | – | – | – | – | – | – | –
2 | – | – | – | hyaluronic acid [listing 1 of 2 here] | – | – | – | – | – | – | – | – | – | – | 2.14 times | – | – | – | – | – | –
3 | almost no change | almost no change | did not cause any change | hyaluronic acid [listing 2 of 2 here] | – | milder than in the negative control | smaller than that in the negative control | – | significantly smaller than those in the distilled water group | significantly smaller than that in the negative control | – | – | significantly smaller than that in the negative control | significantly smaller than that in the negative control | – | not observed | significantly smaller than that in the negative control | significantly smaller than those in the distilled water group | lower than those in the positive control | higher than the concentration of TGF-β in the positive control | increased remarkably
